Results as given in ChEMBL document CHEMBL4002550, “Fragment-based discovery of novel pentacyclic triterpenoid derivatives as cholesteryl ester transfer protein inhibitors” (Eur J Med Chem, 2017).

Target: T1, Cholesteryl ester transfer protein (Homo sapiens, UniProt P11597)
T1 sequence (P11597 whole entry): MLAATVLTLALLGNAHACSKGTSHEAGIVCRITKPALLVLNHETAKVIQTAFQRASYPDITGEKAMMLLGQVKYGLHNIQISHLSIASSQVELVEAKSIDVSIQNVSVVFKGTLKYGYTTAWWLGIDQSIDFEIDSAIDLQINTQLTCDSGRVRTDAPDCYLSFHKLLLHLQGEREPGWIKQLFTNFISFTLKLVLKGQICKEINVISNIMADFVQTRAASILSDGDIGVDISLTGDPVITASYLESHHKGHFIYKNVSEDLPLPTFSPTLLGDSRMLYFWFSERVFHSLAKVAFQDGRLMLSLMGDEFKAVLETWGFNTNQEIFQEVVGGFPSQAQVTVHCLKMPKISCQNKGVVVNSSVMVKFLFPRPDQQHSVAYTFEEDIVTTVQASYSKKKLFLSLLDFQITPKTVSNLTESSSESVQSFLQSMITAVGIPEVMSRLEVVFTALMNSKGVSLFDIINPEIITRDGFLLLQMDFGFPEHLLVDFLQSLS
Assay: Inhibition of recombinant full length human CETP expressed in CHO cells assessed as reduction in BODIPY-CE transfer measured after 1 to 3 hrs by fluorescence assay
Type: cell-based

| SMILES | IC50 [µM] |
| --- | --- |
| CCOC(=O)N1c2ccc(C(F)(F)F)cc2[C@@H](NC(=O)CC(=O)O[C@H]2CC[C@]3(C)[C@H]4CC=C5[C@@H]6[C@@H](C)[C@H](C)CC[C@]6(C(=O)O)CC[C@@]5(C)[C@]4(C)CC[C@H]3C2(C)C)C[C@H]1CC | 4.42 |
| CCOC(=O)N1c2ccc(C(F)(F)F)cc2[C@@H](NC(=O)CC(=O)O[C@H]2CC[C@]3(C)[C@H]4CC=C5[C@@H]6CC(C)(C)CC[C@]6(C(=O)O)CC[C@@]5(C)[C@]4(C)CC[C@H]3C2(C)C)C[C@H]1CC | > 50 |
| CCOC(=O)N1c2ccc(C(F)(F)F)cc2[C@@H](NC(=O)CCCC(=O)O[C@H]2CC[C@]3(C)[C@H]4CC=C5[C@@H]6CC(C)(C)CC[C@]6(C(=O)O)CC[C@@]5(C)[C@]4(C)CC[C@H]3C2(C)C)C[C@H]1CC | > 50 |
| CCOC(=O)N1c2ccc(C(F)(F)F)cc2[C@@H](NC(=O)CCC(=O)O[C@H]2CC[C@]3(C)[C@H]4CC=C5[C@@H]6[C@@H](C)[C@H](C)CC[C@]6(C(=O)O)CC[C@@]5(C)[C@]4(C)CC[C@H]3C2(C)C)C[C@H]1CC | 0.28 |
| CCOC(=O)N1c2ccc(C(F)(F)F)cc2[C@@H](NC(=O)CCCC(=O)O[C@H]2CC[C@]3(C)[C@H]4CC=C5[C@@H]6[C@@H](C)[C@H](C)CC[C@]6(C(=O)O)CC[C@@]5(C)[C@]4(C)CC[C@H]3C2(C)C)C[C@H]1CC | 3.79 |
| CCOC(=O)N1c2ccc(C(F)(F)F)cc2[C@@H](NC(=O)CCC(=O)O[C@H]2CC[C@]3(C)[C@H]4CC=C5[C@@H]6CC(C)(C)CC[C@]6(C(=O)O)CC[C@@]5(C)[C@]4(C)CC[C@H]3C2(C)C)C[C@H]1CC | > 50 |
